According to US20240269292A1:
“Also recorded” adds a separate entry of the source. Non-standard residues stand in square brackets, D forms with d. Residues, ends and D or L forms follow the SMILES beside them. Dmt = Cc1cc(O)cc(C)c1C[C@H](N)C(=O)O

How the values were obtained:
[1] = Hydrophobicity and aqueous solubility; format: physicochemical
RPE cells of rabbit eyes = experiment: Rabbit ocular hydroquinone (HQ) model of dry AMD (DCFDA, vimentin, phalloidin on RPE flatmounts); format: in vivo
Experimental: FIG. 12 illustrates one example of a relevant animal model, specifically a rabbit-based protocol used to characterize the prodrugs of mitochondrial targeted tetrapeptides described herein. In this model, HQ (0.05 mL, 250 mM HQ) is injected into the vitreous cavity of rabbit eye on day 0 and day 1, and drug of interest (mitochondrial targeted peptide or prodrug thereof) or control (PBS) solution is injected into the same vitreous cavity of the rabbit eye at day 2. At day 4, the rabbit is euthanized, and eyes recovered for histologic analysis of retina and RPE flatmounts for various metrics, including cellular oxidation (DCFDA), as a surrogate of mitochondrial dysfunction, as well as for other cellular markers.
The rabbit hydroquinone (HQ) model of dry AMD (FIG. 12) was induced and flatmount of retinal pigment epithelium (RPE) were isolated.
Scores were determined by masked expert graders in at least 100 RPE cells from at least 3 eyes per condition.
A rabbit model of mitochondrial dysfunction is also used to assay bioactivity of MTT and prodrugs derived thereof. […] On day 2, the MTT (e.g., EY005, 15 μM) were injected IVT. On day 3, a fluorogenic dye that measures hydroxyl, peroxyl and other reactive oxygen species (e.g., DCFDA) was injected IVT, and tissues were collected 12 hours later. RPE flatmounts were processed for multiple readouts: oxidation byproducts (DCFDA, FIG. 13) and measures of RPE-associated extracellular matrix (cytosolic vimentin expression, FIG. 14), and RPE cell dysmorphology (i.e., actin cytoskeleton (phalloidin), FIG. 14). All were analyzed and quantified by microscopy.
For example, in the rabbit ocular hydroquinone model, systemic administration of the maximally tolerated human dose of mitochondrial-targeted peptide (EY005) allometrically scaled for the rabbit, only partially restores RPE actin cytoskeletal integrity (FIG. 15D). In contrast, IVT injection of EY005 results in downregulation of RPE vimentin expression (FIG. 14) and restoration of normal RPE actin cytoskeleton integrity (FIG. 15C). […] IVT EY005 treatment produced an approximately 75% reduction of oxidation byproducts. […] In this setting, retinal and RPE tissue levels achieved by IVT administration in rabbits are substantially higher than tissue levels obtained by SQ administration of the maximally tolerated human dose allometrically scaled for rabbits.

[2] = system: retinal pigment epithelium (RPE) cells; experiment: HQ-induced mitochondrial dysfunction in RPE cells (flavoprotein autofluorescence); format: cell-based; conditions: HQ-exposed RPE cells, versus elamipretide or native EY005
Experimental: (§1) Cells are then treated with drug (or control phosphate-buffered saline (PBS) solution) and assayed for effects on mitochondrial dysfunction and other cellular changes.
(§2) Mitochondrial dysfunction can be modeled using in vitro cell culture systems relevant to retinal disease. In one such system, retinal pigment epithelium (RPE) cells are cultured to post-confluence to establish a differentiated cell monolayer and are then assayed for mitochondrial dysfunction and effect of drugs for treatment of mitochondrial dysfunction (FIG. 5). In this model, mitochondrial dysfunction is induced by two exposures to nonlethal doses of hydroquinone (HQ) at day −3 and day 0. Hydroquinone (HQ), a well-known environmental toxicant ubiquitously present in Western lifestyle, is a biochemical inducer of mitochondrial dysfunction. […] Cells are then treated with a drug of interest (mitochondrial targeted peptide drug or a prodrug thereof) or control (phosphate-buffered saline (PBS) solution and assayed for effects on mitochondrial dysfunction, as measured by microscopy of flavoprotein autofluorescence (a measure of mitochondrial electron transport chain complex II decompensation) (FIG. 6).

mouse retinal tissues = experiment: Mouse experimental retinal vein occlusion (RVO) model; format: in vivo
From the text: Control, untreated mice show undetectable FP-AF and superoxide.
Control, untreated mice show normal synaptic markers.
FIGS. 11H-111 show visual function as quantified by electroretinogram (ERG) in mice treated with control, RVO and RVO with EY005 pretreatment or EY005 post-treatment. B-wave amplitudes were quantified from at least 5 eyes for each condition.

[3] = In vivo kinetics after intravitreal Mito XR bolus in rabbit eyes, LC/MS
[4] = Theoretical in vivo release pharmacokinetics from XRDDS in vitreous cavity of rabbit eyes (FIGS. 31-32); conditions: theoretical data
From the text: (§3) FIG. 31 illustrates theoretical in vivo release pharmacokinetic data comparing release kinetics of unmodified EY005 from the novel extended-release drug delivery system to that of two EY005 prodrugs, each of which is also formulated in the novel extended-release drug delivery system and injected into the vitreous cavity of rabbit eyes.
as §3, with “32” for “31”

[5] = rabbit
From the text: In some examples, cleavage and release of the free bioactive mitochondrial targeted tetrapeptide can be assessed following in vivo injection of the implant containing the prodrug within the extended release drug delivery system into the vitreous cavity or periocular tissues of a preclinical animal model (e.g., mouse, rat, rabbit, pig, etc.) (FIG. 29), wherein ocular tissue is recovered, and analytic methods such as HPLC or mass spectrometry can be used to calculate the amount of free bioactive mitochondrial targeted tetrapeptide and intact prodrug, at various timepoints after in vivo injection.

[6] = system: retinal pigment epithelium (RPE) cells; experiment: Dysregulated extracellular matrix (vimentin) in HQ-exposed RPE cells; format: cell-based; conditions: ≥5 μM
Experimental: as §1, §2

[7] = In vitro release kinetics of pilot formulation of Mito XR; format: physicochemical; conditions: same complexation agent and dispersal medium as Mito XR
rabbit RPE = experiment: Rabbit ocular hydroquinone (HQ) model of dry AMD; format: in vivo
[8] = system: retinal pigment epithelium (RPE) cells; experiment: Actin cytoskeleton disorganization (phalloidin) in HQ-exposed RPE cells; format: cell-based; conditions: 5 μM
Experimental: as §1, §2

[9] = Accelerated in vitro release assay with complexation agents in methyl laurate; format: physicochemical; conditions: EY005 MTT formulated with various complexation agents, methyl laurate dispersal medium
From the text: In all cases, all EY005 was rapidly released, in some cases within hours, and in all cases by day 3.

[10] = system: retinal pigment epithelium (RPE) cells; format: cell-based
Experimental: as §1
Mitochondrial dysfunction is manifest as increased flavoprotein autofluorescence (upper panels) and as dysmorphology of the actin cytoskeleton (lower panels). […] EY005-stearyl was also preincubated with carboxyesterase (0.1 μg/mL) in separate media.
Mitochondrial dysfunction can be modeled using in vitro cell culture systems relevant to retinal disease. In one such system, retinal pigment epithelium (RPE) cells are cultured to post-confluence to establish a differentiated cell monolayer and are then assayed for mitochondrial dysfunction and effect of drugs for treatment of mitochondrial dysfunction (FIG. 5). In this model, mitochondrial dysfunction is induced by two exposures to nonlethal doses of hydroquinone (HQ) at day −3 and day 0. Hydroquinone (HQ), a well-known environmental toxicant ubiquitously present in Western lifestyle, is a biochemical inducer of mitochondrial dysfunction. When HQ is added to fully differentiated RPE cell cultures, HQ competes with mitochondrial ubiquinone, siphoning high-energy electrons from electron transport chain, which then reduces oxygen into superoxide, leading to cardiolipin peroxidation and mitochondrial dysfunction. Cells are then treated with a drug of interest (mitochondrial targeted peptide drug or a prodrug thereof) or control (phosphate-buffered saline (PBS) solution and assayed for effects on mitochondrial dysfunction, as measured by microscopy of flavoprotein autofluorescence (a measure of mitochondrial electron transport chain complex II decompensation) (FIG. 6).

[11] = rabbit, single IVT dose of 15 μg, 36 hrs. after drug treatment
[12] = cultured RPE cells, dose-response
[13] = cultured RPE cells, high dose (≥5 μM)

Structure (SMILES): Cc1cc(O)cc(C)c1C[C@H](NC(=O)[C@H](N)CCCNC(=N)N)C(=O)N[C@@H](CCCCN)C(=O)N[C@@H](Cc1ccccc1)C(=O)O [EY005, H-d-Arg-DMT-Lys-Phe] (H-[dR][Dmt]KF-OH)
- Hydrophobicity [1]: highly hydrophilic
- Aqueous solubility ([1]; native form): high aqueous solubility
- reversal of mitochondrial dysfunction (oxidant species) in RPE of rabbit eyes (RPE cells of rabbit eyes; rabbit HQ model, 15 μM IVT, within 36 hours of treatment): reduced oxidant species; also recorded: potent for reversal of mitochondrial dysfunction
- reversal of RPE cytoskeletal dysmorphology, intravitreal (RPE cells of rabbit eyes; rabbit HQ model, intravitreal 15 μM): near complete reversal of RPE cytoskeletal dysmorphology
- reversal of RPE cytoskeletal dysmorphology, subcutaneous (RPE cells of rabbit eyes; rabbit HQ model, subcutaneous 0.9 mg/kg once daily): only partial reversal of RPE cytoskeletal dysmorphology
- retinal toxicity (RPE cells of rabbit eyes; rabbit, single IVT dose of 15 μg): no retinal toxicity was observed
- reduction of cytoskeleton disorganization (phalloidin) (RPE cells of rabbit eyes; [11]): approximately 80%
- reduction of oxidation byproducts (DCFDA) (RPE cells of rabbit eyes; [11]): approximately 75%
- reversal of vimentin stain (RPE cells of rabbit eyes; [11]): approximately 90%
- Potency for reversal of mitochondrial dysfunction relative to comparator [2]: equipotent to elamipretide
- markers of mitochondrial dysfunction (flavoprotein autofluorescence and superoxide) following RVO (mouse retinal tissues; mouse, 3 mg/kg BID subcutaneous): significantly attenuates both markers of mitochondrial dysfunction
- synaptic markers (SV2, ZNP-1) in inner and outer plexiform layers following RVO (mouse retinal tissues; mouse, 3 mg/kg BID subcutaneous, pretreatment or posttreatment): significantly prevents (pretreatment) and reverses (posttreatment) loss of synaptic markers
- ERG B-wave amplitude following RVO (mouse retinal tissues; mouse, pretreatment or post-treatment): significantly prevented or reversed loss of B-wave amplitude
- efficacy in treatment of mouse model of RVO (mouse retinal tissues; systemic dose greater than the maximally tolerated dose in humans (allometrically scaled)): partially effective
- Residual drug in recovered bolus ([3]; bolus formulation of EY005 native peptide): no residual drug
- Retinal tissue concentrations ([3]; through 7-week timepoint (Mito XR), week 3.5 (EY005 native peptide bolus)): nearly undetectable
- time to nearly complete release of unmodified EY005 from XRDDS [4]: approximately 30 days
- residual drug in recovered bolus, native peptide formulation ([5]; IVT bolus formulation of EY005 native peptide): contained no EY005 native peptide; also recorded: no residual drug in the recovered bolus
- time by which tissue concentrations were nearly undetectable ([5]; IVT identical bolus formulation containing EY005 native peptide): ≤ 3.5 week
- time beyond which EY005 tissue levels were not detectable ([5]; IVT multiphasic colloidal suspension bolus of EY005 native peptide): ≤ 21 days
- Reversal of dysregulated extracellular matrix (vimentin) [6]: reverses dysregulation of RPE extracellular matrix
- release of native peptide formulated identically to Mito XR [7]: extremely rapid release; also recorded: excessive release
- Reversal of RPE cytoskeletal dysmorphology (rabbit RPE; 0.9 mg/kg subcutaneous once daily): only partially effective
- Efficacy of intravitreal versus subcutaneous administration (rabbit RPE; intravitreal injection): significantly more effective
- Reversal of actin cytoskeleton disorganization [8]: restores normal RPE cell morphology
- time by which all EY005 was released [9]: ≤ 3 days
- reversal of HQ-induced mitochondrial dysfunction (flavoprotein autofluorescence) ([10]; HQ-exposed cultured RPE cells): reversal of induced mitochondrial dysfunction; also recorded: near complete reversal of mitochondrial dysfunction
- efficacy and potency for reduction of flavoprotein autofluorescence compared to elamipretide ([10]; HQ-exposed cultured RPE cells, dose-response): equivalent efficacy and potency; also recorded: comparable or equivalent dose-response and potency to elamipretide
- efficacy and potency for reversal of actin cytoskeleton disorganization compared to elamipretide [10, 12]: equivalent efficacy and potency
- efficacy and potency for reversal of dysregulated extracellular matrix (vimentin) compared to elamipretide [10, 12]: equivalent efficacy and potency
- reversal of actin cytoskeleton disorganization (phalloidin staining) [10, 13]: reversal of actin cytoskeleton disorganization
- reversal of dysregulated extracellular matrix (vimentin expression) [10, 13]: reversal of dysregulated extracellular matrix
